Data from the NIST ThermoML archive (doi:10.1016/j.jct.2003.11.007).

What was measured:
[1] = 101.33 kPa, Liquid
[2] = xn = mol fraction of the nth substance listed; details: 101.3 kPa, Liquid

COC(=O)OC [dimethyl carbonate]
[1]
Details	mass density [kg/m3]
288.15 K	1076.43
293.15 K	1069.95
298.15 K	1063.26
303.15 K	1056.61
308.15 K	1050.01
318.15 K	1036.65
328.15 K	1022.92

CCCCCCCCCCCC [dodecane]
[1]
Details	mass density [kg/m3]
288.15 K	752.44
293.15 K	748.8
298.15 K	745.19
303.15 K	741.57
308.15 K	737.93
318.15 K	730.7
328.15 K	723.32

CCCCCCCCCCCC [dodecane] + COC(=O)OC
[2]
Details	mass density [kg/m3]
288.15 K, x2 = 0.1	763.29
288.15 K, x2 = 0.1984	775.97
288.15 K, x2 = 0.2519	783.82
288.15 K, x2 = 0.2998	791.48
288.15 K, x2 = 0.3943	808.72
288.15 K, x2 = 0.9498	1031.65
293.15 K, x2 = 0.0994	759.42
293.15 K, x2 = 0.2008	772.33
293.15 K, x2 = 0.2474	779.08
293.15 K, x2 = 0.2967	786.85
293.15 K, x2 = 0.3962	804.76
293.15 K, x2 = 0.9006	989.35
293.15 K, x2 = 0.9507	1026.33
298.15 K, x2 = 0.1015	755.81
298.15 K, x2 = 0.1968	767.75
298.15 K, x2 = 0.2518	775.63
298.15 K, x2 = 0.3057	784.12
298.15 K, x2 = 0.4019	801.57
298.15 K, x2 = 0.4976	822.41
298.15 K, x2 = 0.5975	849.03
298.15 K, x2 = 0.7026	884.3
298.15 K, x2 = 0.7991	925.9
298.15 K, x2 = 0.9011	984.3
298.15 K, x2 = 0.9512	1020.8
303.15 K, x2 = 0.0995	751.67
303.15 K, x2 = 0.195	763.42
303.15 K, x2 = 0.2498	771.18
303.15 K, x2 = 0.3315	784.26
303.15 K, x2 = 0.3999	796.8
303.15 K, x2 = 0.4997	818.35
303.15 K, x2 = 0.6015	845.3
303.15 K, x2 = 0.6974	876.92
303.15 K, x2 = 0.798	919.35
303.15 K, x2 = 0.8988	976.31
303.15 K, x2 = 0.9497	1012.95
308.15 K, x2 = 0.0998	747.85
308.15 K, x2 = 0.1992	759.93
308.15 K, x2 = 0.2486	766.84
308.15 K, x2 = 0.2938	773.75
308.15 K, x2 = 0.4017	792.74
308.15 K, x2 = 0.5014	814.12
308.15 K, x2 = 0.5995	839.81
308.15 K, x2 = 0.6978	871.92
308.15 K, x2 = 0.7983	914.04
308.15 K, x2 = 0.9004	971.25
308.15 K, x2 = 0.9494	1006.38
318.15 K, x2 = 0.1003	740.31
318.15 K, x2 = 0.2044	752.75
318.15 K, x2 = 0.251	759.14
318.15 K, x2 = 0.3042	767.18
318.15 K, x2 = 0.401	783.99
318.15 K, x2 = 0.4988	804.44
318.15 K, x2 = 0.6028	831.06
318.15 K, x2 = 0.6973	861.26
318.15 K, x2 = 0.8023	904.51
318.15 K, x2 = 0.8976	956.98
318.15 K, x2 = 0.9497	993.69
328.15 K, x2 = 0.0924	731.92
328.15 K, x2 = 0.2	744.23
328.15 K, x2 = 0.25	750.88
328.15 K, x2 = 0.3	758.18
328.15 K, x2 = 0.4007	775.11
328.15 K, x2 = 0.5003	795.39
328.15 K, x2 = 0.6158	824.8
328.15 K, x2 = 0.7057	853.75
328.15 K, x2 = 0.7855	885.61
328.15 K, x2 = 0.8981	945.23
328.15 K, x2 = 0.9483	979.79
